What all share (format): biochemical
Test [1] can be described thus: PPi release assay, adenylation activity with L-hydroxyphenylglycine. Particulars: for adenylation activity (absorption 360 nm, PPi release assay) / adenylation activity (PPi release assay): substrate L-hydroxyphenylglycine. The text has this: (§1) These assays use inorganic pyrophosphatases to convert PPi produced during aminoacyl-AMP formation to orthophosphate (Pi). To measure Pi concentrations some of these assays use molybdate/malachite green reagent for colorimetric detection (McQuade et al. 2008) or, as used in the context of the present invention, a shift in absorbance maximum by conversion of 7-methyl-6-thioguanosine (MESG) by purine nucleoside phosphorylase (Ehmann D. E. et al. (Proc. Natl. Acad. Sci. (2000) 97, 2509-2514) or Daniel & Aldrich (Anal. Biochem. (2010) 404, 56-63)).
(§2) To determine the adenylation activity of the adenylation domains, the Enzchek® pyrophosphate assay kit (Life Technologies) was used as described by Ehmann D. E. et al. (Proc Nat Acad Science (2000) 97, 2509-2514) with small modifications. The reactions were performed 96 wells UV/Vis transparent plates (BD Falcon). The reaction mixture comprises 50 mM HEPES pH 8.0, 10 mM MgCl2, 5 mM ATP, 75 mM DTT, 0.03 U Inorganic Pyrophosphatase (IP), 1 U Purine Nucleoside Phosphorylase (PNP) and 0.2 mM MESG in a volume of 70 μl. Next 20 μl (around 0.5-2 μM final concentration) of purified A(T) domain, with or without co-purification of the MbtH like helper protein was added and the reaction was pre-incubated for 15 minutes at RT to reduce contaminating Pi. Following the pre-incubation, 10 μl of a 10 mM or 1 mM solution of the appropriate amino acid depending on the performed specificity determination was added to initiate the adenylation reaction and the absorbance at 360 nm was measured using a TECAN I Control spectrophotometer. Absorbance measurements were made every 5 to 10 min over a period of up to 240 min. A reaction with addition of 10 μl MilliQ water instead was used to determine and subtract the background absorbance. As substrates the following amino acids were used: D- or L-phenylalanine, D- or L-hydroxyphenylglycine, D- or L-phenylglycine, L-tryptophan, L-valine, L-cysteine, and L-leucine.

Test [2] in a line: PPi release assay, adenylation activity with D-hydroxyphenylglycine.
Excerpt: as §1, §2

A short description of test [3]: PPi release assay, adenylation activity with L-phenylglycine. Particulars: for Formed PPi: substrate L-PG 1 mM.
Excerpt: as §1, §2

Test [4] can be described thus: PPi release assay, adenylation activity with D-phenylglycine. Particulars: for Formed PPi: substrate D-PG 1 mM.
Excerpt: as §1, §2

A short description of test [5]: PPi release assay, adenylation activity with L-phenylalanine. Particulars: substrate L-phenylalanine.
Excerpt: as §1, §2

Test [6] is described as follows: PPi release assay, adenylation activity with D-phenylalanine. Particulars: substrate D-phenylalanine.
Excerpt: as §1, §2

The mark [7] stands for this setting: substrate L-HPG 0.1 mM, co-purified with MbtH-like protein Tcp 13.
Where [8] appears, read: substrate L-HPG 0.1 mM, co-purified with MbtH-like protein Tcp 17.
The mark [9] stands for this setting: substrate L-HPG 0.1 mM, co-purified with MbtH-like protein VMbtH.
Setting [10] is: substrate L-HPG 1 mM, co-purified with MbtH-like protein Tcp 13.
Setting [11] is: substrate L-HPG 1 mM, co-purified with MbtH-like protein Tcp 17.
Setting [12] is: substrate L-HPG 1 mM, co-purified with MbtH-like protein VMbtH.
Where [13] appears, read: co-purified with MbtH-like protein Tcp13.
Setting [14] is: protein alone, without MbtH-like protein.
[15] abbreviates: substrate D-HPG 0.1 mM, co-purified with MbtH-like protein Tcp 13.
Setting [16] is: substrate D-HPG 0.1 mM, co-purified with MbtH-like protein Tcp 17.
[17] abbreviates: substrate D-HPG 0.1 mM, co-purified with MbtH-like protein VMbtH.
[18] abbreviates: substrate D-HPG 1 mM, co-purified with MbtH-like protein Tcp 13.
Where [19] appears, read: substrate D-HPG 1 mM, co-purified with MbtH-like protein Tcp 17.
[20] abbreviates: substrate D-HPG 1 mM, co-purified with MbtH-like protein VMbtH.
Where [21] appears, read: substrate D-hydroxyphenylglycine, co-purified with MbtH-like protein Tcp13.
Setting [22] is: substrate D-hydroxyphenylglycine, protein alone, without MbtH-like protein.
[23] abbreviates: co-purified with MbtH-like protein Tcp 13.
Where [24] appears, read: co-purified with MbtH-like protein Tcp 17.
Where [25] appears, read: co-purified with MbtH-like protein VMbtH.
The mark [26] stands for this setting: co-purified with Tcp13, or Tcp17 or VMbtH.

Consider “Tcp11_M1_A: purified adenylation domain of Tcp11 module M1 (SEQ ID NO: 7), maltose binding protein fusion, His-tag; Actinoplanes teichomyceticus”, for which the “Formed PPi” value is listed as 0.80 mM/min/mM enzyme in test [1] (setting [7]); 0.95 mM/min/mM enzyme in test [1] (setting [8]); 1.38 mM/min/mM enzyme in test [1] (setting [9]); 1.03 mM/min/mM enzyme in test [1] (setting [10]); 1.04 mM/min/mM enzyme in test [1] (setting [11]); 1.54 mM/min/mM enzyme in test [1] (setting [12]). The “Formed PPi” value in test [2] (setting [15]) was found to be 0.08 mM/min/mM enzyme; in test [2] (setting [16]), 0.11 mM/min/mM enzyme; in test [2] (setting [17]), 0 mM/min/mM enzyme; in test [2] (setting [18]), 0.66 mM/min/mM enzyme; in test [2] (setting [19]) it was 0.63 mM/min/mM enzyme; in test [2] (setting [20]), 0.86 mM/min/mM enzyme. The “Formed PPi” value is on record as 0.17 mM/min/mM enzyme in test [3] (setting [23]); 0.23 mM/min/mM enzyme in test [3] (setting [24]); 0.09 mM/min/mM enzyme in test [3] (setting [25]); 0 mM/min/mM enzyme in test [4] (setting [23]); 0.04 mM/min/mM enzyme in test [4] (setting [24]); 0 mM/min/mM enzyme in test [4] (setting [25]). The “adenylation activity (absorption 360 nm, PPi release assay)” value in test [1] (setting [13]) is listed as “clear adenylation activity”; in test [1] (setting [14]), “No adenylation activity”; in test [2] (setting [21]) it was “clear adenylation activity”; in test [2] (setting [22]) it was “No adenylation activity”; in test [5] (setting [13]) it was “no activity”; in test [5] (setting [14]) it was “No adenylation activity”. Further, the “adenylation activity (absorption 360 nm, PPi release assay)” value in test [6] (setting [13]) is given as “no activity”; in test [6] (setting [14]) it was “No adenylation activity”.
With “Veg8_M1_A: purified adenylation domain of Veg8 module M1 (SEQ ID NO: 6), maltose binding protein fusion, His-tag; uncultured soil bacterium”, the “Formed PPi” value came out at 0.56 mM/min/mM enzyme in test [1] (setting [7]); 0.70 mM/min/mM enzyme in test [1] (setting [8]); 0.61 mM/min/mM enzyme in test [1] (setting [9]); 0.59 mM/min/mM enzyme in test [1] (setting [10]); 0.64 mM/min/mM enzyme in test [1] (setting [11]); 0.61 mM/min/mM enzyme in test [1] (setting [12]). Besides, the “Formed PPi” value in test [2] (setting [15]) came out at 0.14 mM/min/mM enzyme; in test [2] (setting [16]), 0.17 mM/min/mM enzyme; in test [2] (setting [17]) it was 0.18 mM/min/mM enzyme; in test [2] (setting [18]), 0.92 mM/min/mM enzyme; in test [2] (setting [19]), 1.03 mM/min/mM enzyme; in test [2] (setting [20]) it was 1.39 mM/min/mM enzyme. The “Formed PPi” value worked out at 0.17 mM/min/mM enzyme in test [3] (setting [23]); 0.14 mM/min/mM enzyme in test [3] (setting [24]); 0.20 mM/min/mM enzyme in test [3] (setting [25]); 0.01 mM/min/mM enzyme in test [4] (setting [23]); 0.02 mM/min/mM enzyme in test [4] (setting [24]); 0.02 mM/min/mM enzyme in test [4] (setting [25]). Also, the “adenylation activity (absorption 360 nm, PPi release assay)” value is on record as “clear adenylation activity” in test [1] (setting [13]); “very minor adenylation activity” in test [1] (setting [14]); “clear adenylation activity” in test [2] (setting [21]); “no activity” in test [2] (setting [22]); “no activity” in test [5] (setting [13]); “no activity” in test [5] (setting [14]). For the same substance, the “adenylation activity (absorption 360 nm, PPi release assay)” value in test [6] (setting [13]) and in test [6] (setting [14]) was “no activity” each time.
As for “Teg7_M1_A: purified adenylation domain of Teg7 module M1 (SEQ ID NO: 27); uncultured soil bacterium”, the “adenylation activity (PPi release assay)” value is given as “the same specificity” in test [1] (co-purified with MbtH-like protein TMbtH); “no adenylation activity” in test [1] (setting [26]); “no adenylation activity” in test [2] (substrate D-hydroxyphenylglycine, co-purified with Tcp13, or Tcp17 or VMbtH); “no adenylation activity” in test [3] (substrate L-phenylglycine, co-purified with Tcp13, or Tcp17 or VMbtH); “no adenylation activity” in test [4] (substrate D-phenylglycine, co-purified with Tcp13, or Tcp17 or VMbtH); “no adenylation activity” in test [5] (setting [26]). Also, the “adenylation activity (PPi release assay)” value in test [6] (setting [26]) was “no adenylation activity”. The “adenylation activity (absorption 360 nm, PPi release assay)” value in test [1] (setting [14]), in test [2] (setting [22]), in test [5] (setting [14]) and in test [6] (setting [14]) was “No adenylation activity” throughout.
As for “Tcp9_M1_AT: purified adenylation thiolation didomain of Tcp9 (SEQ ID NO: 1 plus adjacent thiolation domain), MBP fusion, His-tag”, the “Formed PPi” value in test [1] (setting [7]) worked out at 1.18 mM/min/mM enzyme; in test [1] (setting [8]) it was 1.20 mM/min/mM enzyme; in test [1] (setting [9]), 1.23 mM/min/mM enzyme; in test [1] (setting [10]) it was 1.16 mM/min/mM enzyme; in test [1] (setting [11]), 1.34 mM/min/mM enzyme; in test [1] (setting [12]), 1.40 mM/min/mM enzyme. Further, the “Formed PPi” value in test [2] (setting [15]) is listed as 2.07 mM/min/mM enzyme; in test [2] (setting [16]) it was 1.71 mM/min/mM enzyme; in test [2] (setting [17]) it was 3.72 mM/min/mM enzyme; in test [2] (setting [18]), 5.28 mM/min/mM enzyme; in test [2] (setting [19]) it was 4.63 mM/min/mM enzyme; in test [2] (setting [20]), 8.44 mM/min/mM enzyme. In addition, the “Formed PPi” value was 1.32 mM/min/mM enzyme in test [3] (setting [23]); 1.44 mM/min/mM enzyme in test [3] (setting [24]); 2.32 mM/min/mM enzyme in test [3] (setting [25]); 0.05 mM/min/mM enzyme in test [4] (setting [23]); 0.05 mM/min/mM enzyme in test [4] (setting [24]); 0.07 mM/min/mM enzyme in test [4] (setting [25]). Further, the “adenylation activity (absorption 360 nm, PPi release assay)” value was “clear adenylation activity” in test [1] (setting [13]); “No adenylation activity” in test [1] (setting [14]); “clear adenylation activity” in test [2] (setting [21]); “No adenylation activity” in test [2] (setting [22]); “no activity” in test [5] (setting [13]); “No adenylation activity” in test [5] (setting [14]). Further, the results for the “adenylation activity (absorption 360 nm, PPi release assay)” value in test [6] (setting [13]) and in test [6] (setting [14]) were “no activity” and “No adenylation activity”, respectively.

For the origin of these results see patent US20140349340A1, “MBTH-LIKE PROTEINS IN THE PRODUCTION OF SEMI SYNTHETIC ANTIBIOTICS” (DSM SINOCHEM PHARMACEUTICALS NETHERLANDS B.V., priority 2012, published 2014).
